Laboratory results as given in patent publication US20260125397A1, “MK2 DEGRADERS AND USES THEREOF” (Kymera Therapeutics, Inc., priority 2023, published 2026).

Experiments:
MK2 [1] = target: T1, MK2 (Homo sapiens, UniProt P49137); assay: MK2 degradation in human SW1353 cells (MSD, 24 h); type: cell-based; set-up: endogenous in cells; host or cells: SW-1353 (ATCC HTB-94); conditions: for Dmax: read-out: MK2 MSD SW 1353 24 h Dmax %; for DC50: read-out: MK2 MSD SW1353 degradation 24 h GMean External Abs DC50
Experimental: The human chondrocyte cancer cell line SW-1353 (ATCC(HTB-94)) was cultured in 96 well plates (Coming 3894) at a density of 200,000 cells per well in 100 microlitres in complete growth medium of Leibovitz's L-15 Medium (Gibco) pus 10% fetal Bovine Serum (Coming) and Penicillin/Streptomycin (SolarBio) at 37 degrees Celsius. A serial dilution of each compound (usually 3 to 5 fold serial dilutions up to 10 separate concentration points) was added to individual wells from a 10 millimolar stock solution, at a background concentration of 0.10% DMSO and the cells were shaken at 600 rpm for 5 minutes and then were cultured for 24 hours at 37 degrees Celsius. Separately, a custom MSD (MesoScaleDiscovery, L15XA-3) plate for detection of human MK2 was prepared by coating the plate with the commercial AbCam ab247272 reagent in 1× Phosphate Buffered Saline at 40 microlitres per well and incubated at 4 degrees Celsius overnight. The next day, the MSD plate was washed with 150 microlitres of Tween buffered saline, blocked with MSD blocking buffer (3% Blocker A from MSD), and washed again.
The cell plate was centrifuged at 3,200 g for 5 minutes and the supernatant was discarded and 100 microlitres of RIPA lysis buffer (containing proteinase inhibitors, Boston BioProducts BP-115D) was added and the plate was sealed and shaken on ice for 20 minutes. The plate was centrifuged as before and 70 microlitres of sample lysate was added to the MSD plates and they were shaken at room temperature for 1 hour at 600 rpm. The MSD plate was washed 3 times as before and then the primary MK2 detection antibody (Santa Cruz sc-100393) was added at a final concentration of 1 microgram per ml at 25 microlitres per well and shaken at room temperature for 1 hour at 600 rpm.
(§1) After 3 more washes, the secondary detection antibody (SULFO-Tag anti rabbit antibody R32AB-5) was added at a final concentration of 1 microgram per ml at 25 microlitres per well and shaken at room temperature for 1 hour at 600 rpm. After 3 more washes, the 1X MSD (diluted from 5X concentrate with water) reading buffer was added at 150 microlitres per well and read on the MSD instrument Meso Sector S 600.
(§2) The inhibition/degradation curves and DC50 values were plotted and calculated using XL Fit (version v5.3.1.3) using equation 201 and a 4 parameter logistic model whereby fit=(A+((B−A)/(1+((x/C)D))) where A is the Bottom and B is the Top and C is the IC50 and D is the slope and high C is the signal for the DMSO treated cells and Low C is the signal is the signal for the lysis buffer.

MK2 [2] = target: T1, MK2; assay: MK2 degradation in human THP-1 monocytic cells (MSD, 24 h); type: cell-based; set-up: endogenous in cells; conditions: THP-1 cells; for DC50: read-out: MK2 MSD THP-1 degradation 24 h GMean External Abs DC50
Experimental: The human monocytic cancer cell line THP-1 (ATCC (TIB-202)) was cultured in 96 well plates (Coming 3894) at a density of 200,000 cells per well in 100 microlitres in complete growth medium of RPMI 1640 (Gibco) pus 10% fetal Bovine Serum (Coming) and Penicillin/Streptomycin (SolarBio) at 37 degrees Celsius and 5% CO2. A serial dilution of each compound (usually 3 to 5 fold serial dilutions up to 10 separate concentration points) was added to individual wells from a 10 millimolar stock solution, at a background concentration of 0.1% DMSO and the cells were shaken at 600 rpm for 5 minutes and then were cultured for 24 hours at 37 degrees Celsius and 5% carbon dioxide. Separately, a custom MSD (MesoScaleDiscovery, L15XA-3) plate for detection of human MK2 was prepared by coating the plate with the commercial AbCarn ab247272 reagent in 1× Phosphate Buffered Saline at 40 microlitres per well and incubated at 4 degrees Celsius overnight. The next day, the MSD plate was washed with 150 microlitres of Tween buffered saline, blocked with MSD blocking buffer (3% BlockerA from MSD), and washed again.
The cell plate was centrifuged at 3,200 g for 5 minutes and the supernatant was discarded and 100 microlitres of RIPA lysis buffer (containing proteinase inhibitors, Boston BioProducts BP-115D) was added and the plate was sealed and shaken on ice for 20 minutes. The plate was centrifuged as before and 70 microlitres of sample lysate was added to the MSD plates and they were shaken at room temperature for I hour at 600 rpm. The MSD plate was washed 3 times as before and then the primary MK2 detection antibody (Santa Cruz sc-100393) was added at a final concentration of 1 microgram per ml at 25 microlitres per well and shaken at room temperature for 1 hour at 600 rpm.
as §1
as §2, with “IC50and” for “IC50 and”

T1 sequence (P49137 whole entry): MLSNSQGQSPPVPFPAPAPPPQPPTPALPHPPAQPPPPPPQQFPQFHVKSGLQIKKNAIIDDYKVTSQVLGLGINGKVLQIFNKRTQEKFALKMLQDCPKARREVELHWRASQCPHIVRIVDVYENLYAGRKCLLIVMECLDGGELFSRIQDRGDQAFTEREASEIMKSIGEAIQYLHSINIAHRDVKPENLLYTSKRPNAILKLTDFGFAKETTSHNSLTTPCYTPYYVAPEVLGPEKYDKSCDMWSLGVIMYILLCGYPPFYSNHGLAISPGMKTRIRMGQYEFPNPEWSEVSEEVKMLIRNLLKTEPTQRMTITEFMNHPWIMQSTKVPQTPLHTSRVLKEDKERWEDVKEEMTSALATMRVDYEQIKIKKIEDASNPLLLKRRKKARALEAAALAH

Row | Structure (SMILES) | Dmax (MK2 [1]) [%] | DC50 (MK2 [1]) [nM] | Dmax (MK2 [2]) [%] | DC50 (MK2 [2]) [nM]
1 | C[C@@H]1CNc2c(sc3ccc4nc(N5CCN(CC6CCC7(CC6)CN(c6ccc8c(N9CCC(=O)NC9=O)cncc8c6)C7)CC5)ccc4c23)C(=O)N1 [I-23] | > 75 | < 1 | > 75 | < 1
2 | COc1ccc2c(c1CCN1CCN(c3ccc(-c4nccc(-c5cc6c([nH]5)C5(CC5)CNC6=O)n4)cc3)CC1)n(C)c(=O)n2C1CCC(=O)NC1=O (stereo not shown) [I-42] | > 75 | < 1 | > 75 | < 1
3 | Cn1c(=O)n(C2CCC(=O)NC2=O)c2cccc(N3CCC(N4CCN(c5ccc(-c6nccc(-c7cc8c([nH]7)C7(CCCC7)CNC8=O)n6)cc5)CC4)C3)c21 (stereo not shown) [I-33] | 50 to 75 | 1 to 10 | 50 to 75 | 1 to 10
4 | O=C1CCN(c2cncc3c(CCN4CCN(c5ccc(-c6nccc(-c7cc8c([nH]7)C7(CCC7)CNC8=O)n6)c(F)c5)CC4)cccc23)C(=O)N1 [I-31] | > 75 | 1 to 10 | > 75 | < 1
5 | C[C@@H]1CNc2c(sc3ccc4nc(N5CCC(N(CC(F)(F)F)C6CC7(CCN(c8ccc9c(c8)n(C)c(=O)n9C8CCC(=O)NC8=O)CC7)C6)CC5)ccc4c23)C(=O)N1 (stereo partly shown) [I-27] | > 75 | 1 to 10 | > 75 | < 1
6 | C[C@@H]1CNc2c(sc3ccc4nc(N5CCC(CN6CCC(N7CC(c8ccc9c(c8)n(C)c(=O)n9C8CCC(=O)NC8=O)C7)CC6)CC5)ccc4c23)C(=O)N1 (stereo partly shown) [I-43] | > 75 | < 1 | > 75 | < 1
7 | Cn1c(=O)n(C2CCC(=O)NC2=O)c2ccc(N3CC(CN4CCC(n5cc(-c6nccc(-c7cc8c([nH]7)C7(CC7)CNC8=O)n6)cn5)CC4)C3)cc21 (stereo not shown) [I-44] | > 50 | > 100 | > 50 | > 100
8 | C[C@@H]1CNc2c(sc3ccc4nc(N5CCC(N(CC(F)F)C6CC7(CCN(c8ccc9c(c8)n(C)c(=O)n9C8CCC(=O)NC8=O)CC7)C6)CC5)ccc4c23)C(=O)N1 (stereo partly shown) [I-46] | > 75 | < 1 | > 75 | < 1
9 | C[C@@H]1CNc2c(sc3ccc4nc(N5CCN(CCC6CC7(CCN(C(=O)c8ccc(Cl)c(N9CCC(=O)NC9=O)c8)CC7)C6)CC5)ccc4c23)C(=O)N1 [I-35] | > 75 | < 1 | > 75 | < 1
10 | C[C@@H]1CNc2c(sc3ccc4nc(N5CCC(COC6CCN(c7ccc8c(c7)n(C)c(=O)n8C7CCC(=O)NC7=O)CC6)CC5)ccc4c23)C(=O)N1 (stereo partly shown) [I-38] | 50 to 75 | < 1 | 50 to 75 | < 1
11 | C[C@@H]1CNc2c(sc3ccc4nc(N5CCN(C[C@H]6C[C@]7(CCN(c8ccc9c(c8)n(C)c(=O)n9C8CCC(=O)NC8=O)C7)C6)CC5)ccc4c23)C(=O)N1 (stereo partly shown) [I-39] | > 50 | < 1 | > 50 | < 1
12 | C[C@@H]1CNc2c(sc3ccc4nc(N5CCN(C6CC7(CCN(c8ccc(NC9CCC(=O)NC9=O)cc8F)CC7)C6)CC5)ccc4c23)C(=O)N1 (stereo partly shown) [I-25] | > 75 | 1 to 10 | > 75 | < 1
13 | C[C@@H]1CNc2c(sc3ccc4nc(N5CCC(OC6CCC7(CC6)CN(c6ccc8c(c6)n(C)c(=O)n8C6CCC(=O)NC6=O)C7)CC5)ccc4c23)C(=O)N1 (stereo partly shown) [I-36] | > 75 | < 1 | > 75 | < 1
14 | C[C@@H]1CNc2c(sc3ccc4nc(N5CCC(CN6CCC7(CC6)CN(c6ccc8c(c6)n(C)c(=O)n8C6CCC(=O)N(C)C6=O)C7)CC5)ccc4c23)C(=O)N1 (stereo partly shown) [I-52] | > 75 | 1 to 10 | > 75 | > 100
15 | Cn1c(=O)n(C2CCC(=O)NC2=O)c2ccc(N3CC(CN4CCC(N5CCN(c6nccc(-c7cc8c([nH]7)C7(CC7)CNC8=O)n6)CC5)CC4)C3)cc21 (stereo not shown) [I-34] | > 50 | > 100 | > 50 | > 100
16 | Cn1c(=O)n(C2CCC(=O)NC2=O)c2cccc(OCCN3CCN(c4ccc(-c5nccc(-c6cc7c([nH]6)C6(CC6)CNC7=O)n5)c(F)c4)CC3)c21 (stereo not shown) [I-24] | > 75 | 1 to 10 | > 75 | < 1

Continued, values first:

Row | Dmax (MK2 [1]) [%] | DC50 (MK2 [1]) [nM] | Dmax (MK2 [2]) [%] | DC50 (MK2 [2]) [nM] | Structure (SMILES)
17 | > 75 | < 1 | > 75 | < 1 | Cn1c(=O)n(C2CCC(=O)NC2=O)c2ccc(N3CC(CN4CCN(c5ccc(-c6nccc(-c7cc8c([nH]7)C(C)(C)CNC8=O)n6)cc5)CC4)C3)cc21 (stereo not shown) [I-22]
18 | > 50 | 10 to 100 | 50 to 75 | < 1 | Cn1c(=O)n(C2CCC(=O)NC2=O)c2ccc(N3CC(CN4CCN(c5ccc(-c6nccc(-c7cc8c([nH]7)C7(CC7)CNC8=O)n6)cc5C5CC5)CC4)C3)cc21 (stereo not shown) [I-49]
19 | > 50 | > 100 | > 50 | > 100 | Cn1c(=O)n(C2CCC(=O)NC2=O)c2ccc(N3CC(CN4CCN(c5ccc(-c6nccc(-c7cc8c([nH]7)C7(CC7)CNC8=O)n6)cc5)CC4)C3)cc21 (stereo not shown) [I-45]
20 | 50 to 75 | < 1 | 50 to 75 | < 1 | Cn1c(=O)n(C2CCC(=O)NC2=O)c2ccc(N3CC(CN4CCN(c5ccc(-c6cc(-c7cc8c([nH]7)C7(CC7)CNC8=O)ncn6)cc5)CC4)C3)cc21 (stereo not shown) [I-30]
21 | 50 to 75 | < 1 | > 75 | < 1 | Cn1c(=O)n(C2CCC(=O)NC2=O)c2ccc(C#CCN3CCN(c4ccc(-c5nccc(-c6cc7c([nH]6)C6(CC6)CNC7=O)n5)cc4)CC3)cc21 (stereo not shown) [I-41]
22 | > 75 | < 1 | > 75 | < 1 | Cn1c(=O)n(C2CCC(=O)NC2=O)c2ccc(N3CC(CN4CCN(c5ccc(-c6nccc(-c7cc8c([nH]7)C7(CC7)CNC8=O)n6)cc5C#N)CC4)C3)cc21 (stereo not shown) [I-37]
23 | > 50 | > 100 | > 50 | > 100 | Cn1c(=O)n(C2CCC(=O)NC2=O)c2ccc(N3CC(CN4CCN(c5ccc(-c6cc(-c7cc8c(o7)C7(CC7)CNC8=O)ncn6)cc5)CC4)C3)cc21 (stereo not shown) [I-29]
24 | 50 to 75 | < 1 | > 75 | < 1 | Cn1c(=O)n(C2CCC(=O)NC2=O)c2ccc(N3CC(CN4CCN(c5ccc(-c6nccc(-c7cc8c([nH]7)C7(CC7)CNC8=O)n6)cc5C(F)(F)F)CC4)C3)cc21 (stereo not shown) [I-48]
25 | > 75 | < 1 | > 75 | < 1 | Cn1c(=O)n(C2CCC(=O)NC2=O)c2ccc(N3CC(CN4CCN(c5ccc(-c6cc(-c7cc8c(o7)C7(CC7)CNC8=O)ccn6)cc5)CC4)C3)cc21 (stereo not shown) [I-28]
